Assay results as given in patent publication US12552796B2, “EED inhibitor, and preparation method therefor and use thereof” (SHANGHAITECH UNIVERSITY, priority 2019, dated 2026).

These compounds were tested on cellular H3K27 methylation (assay: Cellular H3K27 methylation assay (Western blot of H3K27me3 in HeLa cells)). Settings: Homo sapiens, 72 h; HeLa cells, 3 days, H3K27me3 level by Western blot; read-out: PD IC50.
Type: cell-based
Compound `Fc1ccc2c(c1CNc1nccc3nncn13)CCO2` [HJM-001] has an IC50 of 484 nM.
With `Fc1ccc2c(c1CNc1ncc(C3CC3)c3nncn13)CCO2` [HJM-002] the IC50 was 98.8 nM.
`Fc1ccc2c(c1CNc1ncc(C3CCCCO3)c3nncn13)CCO2` (stereo not shown) [HJM-004, N-((5-fluoro-2,3-dihydrobenzofuran-4-yl)methyl)-8-(tetrahydro-2H-pyran-2-yl)-[1,2,4]triazolo[4,3-c]pyrimidin-5-amine] showed an IC50 of 140 nM.
In the case of `Cc1ncccc1CCc1cnc(NCc2c(F)ccc3c2CCO3)n2cnnc12` [HJM-005], the IC50 is reported as 454 nM.
Work on `Fc1ccc2c(c1CNc1ncc(/C=C/CN3CCCCC3)c3nncn13)CCO2` [HJM-006] yielded an IC50 of 48.7 nM.
`Fc1ccc2c(c1CNc1ncc(/C=C/CN3CCOCC3)c3nncn13)CCO2` [HJM-007] showed an IC50 of 49.9 nM.
`Fc1ccc2c(c1CNc1ncc(CCCN3CCCCC3)c3nncn13)CCO2` [HJM-008] was tested, and the IC50 was 112 nM.
With `CC(c1cnc(NCc2c(F)ccc3c2CCO3)n2cnnc12)N1CCCCC1` (stereo not shown) [HJM-009] the IC50 was 563 nM.
Work on `COCCC(COC)c1cnc(NCc2c(F)ccc3c2CCO3)n2cnnc12` (stereo not shown) [HJM-012] yielded an IC50 of 112 nM.
`Fc1ccc2c(c1CNc1ncc(OCCN3CCOCC3)c3nncn13)CCO2` [HJM-013] was tested, and the IC50 was 225 nM.
`COc1cnc(NCc2c(F)ccc3c2CCO3)n2cnnc12` [HJM-014] showed an IC50 of 43.7 nM.
`Fc1ccc2c(c1CNc1ncc(OC3CCOC3)c3nncn13)CCO2` (stereo not shown) [HJM-018] gave an IC50 of 59.2 nM.
`Cc1ncccc1COc1cnc(NCc2c(F)ccc3c2CCO3)n2cnnc12` [HJM-021] gave an IC50 of 242 nM.
`Fc1ccc2c(c1CNc1ncc(NCC3CC3)c3nncn13)CCO2` [HJM-022] gave an IC50 of 284 nM.
Compound `Fc1ccc2c(c1CNc1ncc(NCCN3CCOCC3)c3nncn13)CCO2` [HJM-023] has an IC50 of 1160 nM.
Work on `CN(CCN1CCOCC1)c1cnc(NCc2c(F)ccc3c2CCO3)n2cnnc12` [HJM-024] yielded an IC50 of 1110 nM.
In the case of `CCN(CC)C(=O)c1cnc(NCc2c(F)ccc3c2CCO3)n2cnnc12` [HJM-026], the IC50 is reported as 75.6 nM.
`O=C(c1cnc(NCc2c(F)ccc3c2CCO3)n2cnnc12)N1CCCCC1` [HJM-028] showed an IC50 of 95.3 nM.
`O=C(NC1CC1)c1cnc(NCc2c(F)ccc3c2CCO3)n2cnnc12` [HJM-029] gave an IC50 of 82.2 nM.
Compound `O=C(CN1CCOCC1)Nc1cnc(NCc2c(F)ccc3c2CCO3)n2cnnc12` [HJM-032] has an IC50 of 317 nM.
Compound `COCCC(=O)Nc1cnc(NCc2c(F)ccc3c2CCO3)n2cnnc12` [HJM-034] has an IC50 of 99.5 nM.
`O=C(Nc1cnc(NCc2c(F)ccc3c2CCO3)n2cnnc12)C1CCC1` [HJM-035] showed an IC50 of 53.6 nM.
`O=C(Nc1cnc(NCc2c(F)ccc3c2CCO3)n2cnnc12)C1CCCC1` [HJM-036] showed an IC50 of 160 nM.
With `O=C(Nc1cnc(NCc2c(F)ccc3c2CCO3)n2cnnc12)C1CCOC1` (stereo not shown) [HJM-038] the IC50 was 187 nM.
For `O=C(Nc1cnc(NCc2c(F)ccc3c2CCO3)n2cnnc12)C1CCCCO1` (stereo not shown) [HJM-039], the IC50 was 67.2 nM.
For `O=C(Nc1cnc(NCc2c(F)ccc3c2CCO3)n2cnnc12)C1CCCOC1` (stereo not shown) [HJM-040], the IC50 was 175 nM.
`O=C(Nc1cnc(NCc2c(F)ccc3c2CCO3)n2cnnc12)C1CCOCC1` [HJM-041] was tested, and the IC50 was 334 nM.
`O=C(Nc1cnc(NCc2c(F)ccc3c2CCO3)n2cnnc12)c1ccncc1` [HJM-044] was tested, and the IC50 was 288 nM.
With `COc1cccc(F)c1CNc1ncc(/C=C/c2cccnc2C)c2nncn12` [HJM-046] the IC50 was 2000 nM.
In the case of `COc1cccc(F)c1CNc1ncc(CCc2cccnc2C)c2nncn12` [HJM-047], the IC50 is reported as 7000 nM.
With `COc1cccc(F)c1CNc1ncc(Oc2cccnc2C)c2nncn12` [HJM-048] the IC50 was 1620 nM.
`COc1cccc(F)c1CNc1ncc(/C=C/CN2CCCCC2)c2nncn12` [HJM-049] showed an IC50 of 296 nM.
With `CS(=O)(=O)N1CCC(c2cnc(NCc3c(F)ccc4c3CCO4)n3cnnc23)C1` (stereo not shown) [HJM-050] the IC50 was 50.5 nM.
`Fc1ccc2c(c1CNc1ncc(C3CCCCC3)c3nncn13)CCO2` [HJM-051] was tested, and the IC50 was 167 nM.
With `CN1CCCC(c2cnc(NCc3c(F)ccc4c3CCO4)n3cnnc23)C1` (stereo not shown) [HJM-053] the IC50 was 28.8 nM.
For `Fc1ccc2c(c1CNc1ncc(C3CCOC3)c3nncn13)CCO2` (stereo not shown) [HJM-054], the IC50 was 31.1 nM.
For `O=C(N1CCC(c2cnc(NCc3c(F)ccc4c3CCO4)n3cnnc23)CC1)C(F)(F)F` [HJM-056], the IC50 was 12.8 nM.
With `Fc1ccc2c(c1CNc1ncc(C3CCN(CC(F)(F)F)CC3)c3nncn13)CCO2` [HJM-057] the IC50 was 40.5 nM.
In the case of `OCCN1CCC(c2cnc(NCc3c(F)ccc4c3CCO4)n3cnnc23)CC1` [HJM-058], the IC50 is reported as 131 nM.
`Fc1ccc2c(c1CNc1ncc(C3CCN(C4CC4)CC3)c3nncn13)CCO2` [HJM-059] gave an IC50 of 38.5 nM.
`Fc1ccc2c(c1CNc1ncc(C3CCN(C4COC4)CC3)c3nncn13)CCO2` [HJM-060] gave an IC50 of 141 nM.
Work on `CC1COCCN1c1cnc(NCc2c(F)ccc3c2CCO3)n2cnnc12` (stereo not shown) [HJM-061] yielded an IC50 of 110 nM.
`Fc1ccc2c(c1CNc1ncc(N3CCC(F)(F)C3)c3nncn13)CCO2` [HJM-062] was tested, and the IC50 was 445 nM.
With `COC1CCN(c2cnc(NCc3c(F)ccc4c3CCO4)n3cnnc23)C1` (stereo not shown) [HJM-063] the IC50 was 684 nM.
`O=C1CCN(c2cnc(NCc3c(F)ccc4c3CCO4)n3cnnc23)CC1` [HJM-064] showed an IC50 of 180 nM.
In the case of `CS(=O)(=O)Nc1cnc(NCc2c(F)ccc3c2CCO3)n2cnnc12` [HJM-065], the IC50 is reported as 363 nM.
`O=C1CCCCN1c1cnc(NCc2c(F)ccc3c2CCO3)n2cnnc12` [HJM-068] was tested, and the IC50 was 138 nM.
`CC(=O)Nc1cnc(NCc2c(F)ccc3c2CCO3)n2cnnc12` [HJM-069] was tested, and the IC50 was 391 nM.
With `CCC(=O)Nc1cnc(NCc2c(F)ccc3c2CCO3)n2cnnc12` [HJM-070] the IC50 was 83.1 nM.
With `CC(C)C(=O)Nc1cnc(NCc2c(F)ccc3c2CCO3)n2cnnc12` [HJM-071] the IC50 was 72.8 nM.
Compound `N#CCC(=O)Nc1cnc(NCc2c(F)ccc3c2CCO3)n2cnnc12` [HJM-074] has an IC50 of 554 nM.
Work on `O=C(CO)Nc1cnc(NCc2c(F)ccc3c2CCO3)n2cnnc12` [HJM-075] yielded an IC50 of 690 nM.
Work on `[2H]C([2H])([2H])N(C(=O)C1CC1)c1cnc(NCc2c(F)ccc3c2CCO3)n2cnnc12` [HJM-076] yielded an IC50 of 6.36 nM.
`[2H]C([2H])(Nc1ncc(N(C)C(=O)C2CC2)c2nncn12)c1c(F)ccc2c1CCO2` [HJM-077] was tested, and the IC50 was 14.9 nM.
`[2H]C([2H])(Nc1ncc(N(C(=O)C2CC2)C([2H])([2H])[2H])c2nncn12)c1c(F)ccc2c1CCO2` [HJM-078] showed an IC50 of 12.1 nM.
`CCCN(C(=O)C1CC1)c1cnc(NCc2c(F)ccc3c2CCO3)n2cnnc12` [HJM-080] showed an IC50 of 35 nM.
Compound `CN(C)CC(=O)Nc1cnc(NCc2c(F)ccc3c2CCO3)n2cnnc12` [HJM-081] has an IC50 of 77.6 nM.
Compound `COCCN(C)CC(=O)Nc1cnc(NCc2c(F)ccc3c2CCO3)n2cnnc12` [HJM-085] has an IC50 of 62.5 nM.
For `CN1CCOC(C(=O)Nc2cnc(NCc3c(F)ccc4c3CCO4)n3cnnc23)C1` (stereo not shown) [HJM-086], the IC50 was 188 nM.
`CN1CC(C(=O)Nc2cnc(NCc3c(F)ccc4c3CCO4)n3cnnc23)C1` [HJM-087] showed an IC50 of 235 nM.
`COCCN1CC(C(=O)Nc2cnc(NCc3c(F)ccc4c3CCO4)n3cnnc23)C1` [HJM-088] gave an IC50 of 601 nM.
In the case of `O=C(CCc1ccccc1)Nc1cnc(NCc2c(F)ccc3c2CCO3)n2cnnc12` [HJM-089], the IC50 is reported as 256 nM.
Compound `COc1ccc(C(=O)Nc2cnc(NCc3c(F)ccc4c3CCO4)n3cnnc23)cc1` [HJM-090] has an IC50 of 198 nM.
For `COc1ccc(C(=O)Nc2cnc(NCc3c(F)ccc4c3CCO4)n3cnnc23)cn1` [HJM-091], the IC50 was 291 nM.
Work on `O=C(Nc1cnc(NCc2c(F)ccc3c2CCO3)n2cnnc12)c1ccccc1F` [HJM-092] yielded an IC50 of 139 nM.
With `CS(=O)(=O)c1ccc(C(=O)Nc2cnc(NCc3c(F)ccc4c3CCO4)n3cnnc23)cc1` [HJM-093] the IC50 was 814 nM.
`O=C(Nc1cnc(NCc2c(F)ccc3c2CCO3)n2cnnc12)c1cnco1` [HJM-094] showed an IC50 of 223 nM.
With `O=C(Nc1cnc(NCc2c(F)ccc3c2CCO3)n2cnnc12)c1ncco1` [HJM-095] the IC50 was 178 nM.
`O=C(Nc1cnc(NCc2c(F)ccc3c2CCO3)n2cnnc12)c1ccno1` [HJM-096] gave an IC50 of 89.9 nM.
In the case of `CN1CCN(C(=O)Nc2cnc(NCc3c(F)ccc4c3CCO4)n3cnnc23)CC1` [HJM-097], the IC50 is reported as 792 nM.
`CN(CC1CC1)C(=O)Nc1cnc(NCc2c(F)ccc3c2CCO3)n2cnnc12` [HJM-098] showed an IC50 of 309 nM.
`O=C(Nc1cnc(NCc2c(F)ccc3c2CCO3)n2cnnc12)N1CCOCC1` [HJM-099] showed an IC50 of 1590 nM.
`Fc1ccc2c(c1CNc1ncc(OC3CC(F)(F)C3)c3nncn13)CCO2` [HJM-107] was tested, and the IC50 was 48.5 nM.
Compound `Fc1ccc2c(c1CNc1ncc(OCC3CC3(F)F)c3nncn13)CCO2` (stereo not shown) [HJM-108] has an IC50 of 126 nM.
`[2H]C([2H])(Nc1ncc(OCC2COC2)c2nncn12)c1c(F)ccc2c1CCO2` [HJM-109] was tested, and the IC50 was 24.7 nM.
Work on `[2H]C([2H])(Nc1ncc(OC2CCOCC2)c2nncn12)c1c(F)ccc2c1CCO2` [HJM-110] yielded an IC50 of 32.8 nM.
`[2H]C([2H])(Nc1ncc(OCC2CCOC2)c2nncn12)c1c(F)ccc2c1CCO2` (stereo not shown) [HJM-111] showed an IC50 of 37.9 nM.
For `[2H]C([2H])(Nc1ncc(OC([2H])([2H])C2COC2)c2nncn12)c1c(F)ccc2c1CCO2` [HJM-112], the IC50 was 29.4 nM.
`[2H]C([2H])(Oc1cnc(NCc2c(F)ccc3c2CCO3)n2cnnc12)C1COC1` [HJM-113] showed an IC50 of 59.7 nM.
`O=C(C1CC1)N1CC(Oc2cnc(NCc3c(F)ccc4c3CCO4)n3cnnc23)C1` [HJM-115] was tested, and the IC50 was 201 nM.
In the case of `CN1CC(COc2cnc(NCc3c(F)ccc4c3CCO4)n3cnnc23)C1` [HJM-116], the IC50 is reported as 550 nM.
For `CC(=O)N1CC(COc2cnc(NCc3c(F)ccc4c3CCO4)n3cnnc23)C1` [HJM-117], the IC50 was 1300 nM.
Work on `CNCCOc1cnc(NCc2c(F)ccc3c2CCO3)n2cnnc12` [HJM-118] yielded an IC50 of 792 nM.
For `CN(C)CCOc1cnc(NCc2c(F)ccc3c2CCO3)n2cnnc12` [HJM-119], the IC50 was 264 nM.
`OC1CCC(Oc2cnc(NCc3c(F)ccc4c3CCO4)n3cnnc23)CC1` (stereo not shown) [HJM-121] showed an IC50 of 494 nM.
Compound `COC1CCC(Oc2cnc(NCc3c(F)ccc4c3CCO4)n3cnnc23)CC1` (stereo not shown) [HJM-122] has an IC50 of 54.9 nM.
Work on `COC1CCC(COc2cnc(NCc3c(F)ccc4c3CCO4)n3cnnc23)CC1` (stereo not shown) [HJM-123] yielded an IC50 of 132 nM.
`O[C@H]1CC[C@H](COc2cnc(NCc3c(F)ccc4c3CCO4)n3cnnc23)CC1` [HJM-125] was tested, and the IC50 was 463 nM.
For `Fc1ccc2c(c1CNc1ncc(OCCOc3ccccc3)c3nncn13)CCO2` [HJM-126], the IC50 was 92.1 nM.

Same assay, conditions: Homo sapiens, HeLa, 72 h, read-out: PD IC50
For `O=C(Nc1cnc(NCc2c(F)ccc3c2CCO3)n2cnnc12)c1cccnc1` [HJM-043], the IC50 was 115 nM.
In the case of `Fc1ccc2c(c1CNc1ncc(Nc3ccccc3)c3nncn13)CCO2` [HJM-066], the IC50 is reported as 228 nM.
